The text below walks through data of US11632972B2, “S-nitrosothiol compounds and their combinations with nitrosamine blocking agents for safe food preservation” (YISSUM RESEARCH DEVELOPMENT COMPANY OF THE HEBREW …, priority 2017, dated 2023).

The nature of data set [1]: Effect on the color of the meat (Hunter L*, a*, b*, colorimeter). Set-up: species or system beef. The settings on record: aerobic conditions, period of 24 h. Here is the method:
Nitrite is known to be responsible for the characteristic pink color associated with cured meat products and flavor stabilization. The color development and color stability of ground beef treated S-nitroso-cysteine and S-nitroso-N-acetylcysteine after heating to 72° C. was compared to the color of ground beef treated with nitrite. A portable colorimeter (X-rite) was used to measure Hunter color lightness, redness and yellowness (L*, a*, b*) values of ground beef samples treated with the different additives and heated in a microwave oven (Dow, S-Korea, at 800 W) to 72° C. in the center. The instrument was standardized using white and black standard plates.

Data set [2] deals with naturally occurring bacteria. Briefly: Aerobic colony count in ground beef shoulder. As to conditions: 2.5 mM preservative; for bacteria count (aerobic colony count): after 1 week of storage at 4° C.; for bacteria concentration (aerobic colony count): after 4 weeks at 4° C. The procedure: 10 gr of ground beef shoulder was mixed with 1 ml (25 mM) aqueous solution of the tested preservative (Sodium nitrite, S-nitroso-cysteine and S-nitroso-N-acetylcysteine) or DDW for control and 1 ml of NaCl solution (10% w/v). The final concentrations were 2.5 mM preservative (where Kg meat=L) and 1% (w/w) NaCl. The meat was divided to 1 gr portions and placed in open vacuum bags, then heated in a water bath at 75° C. for 15 min and sealed by […] C100 at a vacuum of 8 mbar. The bags were transferred to 4° C. for cooling and storage. After time periods of 1 hr, 1 week and 4 weeks elapsed, the bags were opened in a hood and 1 gr of meat was homogenized in a sterile grinder with 9 ml of sterile saline, then the homogenate was diluted further with saline and the diluents were plated on BHI agar plates. The plates were incubated at 30° C. for 24 hours then colonies were counted and CFU calculated.

Data set [3] is described as follows: Formation of N-nitroso-N-methylaniline from N-methylaniline with nitrosilating agent (2.5 mM) in citrate buffer at 37° C. The settings on record: 2.5 mM agent, 2.5 mM N-methylaniline, pH 6.2. The procedure: The HPLC separation was performed on a Merck/Hitachi HPLC system consisting of a LaChrom L 7100 pump and a LaChrom DAD L 7450 detector. The system was operated with a data processor working with a LaChrom interface D 7000 and the EZChrom Elite 3.3.1 software. The mixture was separated on a Kinetex EVO C18 column (250×4.6 mm, 5 μm) using a gradient elution system, solvent A was 5% acetonitrile in water (v/v) and B was acetonitrile. Gradient conditions were initial=0% B, 25 min=70% B and 30 min=100% B. The flow rate was constant at 1.0 mL min^−1. The injection loop volume was 20 μL, absorbance was monitored at 272 nm.
The experiment of Example 1 was repeated with a tenfold increase of concentration of the reactants. That is, reaction mixtures were prepared by mixing in citrate buffer, at pH=3.0 and at pH=6.2, N-methylaniline (2.5 mM) and NaCl (2.5 mM) together with an equimolar amount of the tested nitrosilating agent, used either alone or in combination with ascorbic acid, as set out below: […]

Data set [4] deals with naturally occurring bacteria. Put plainly: Aerobic colony count in smoked beef shoulder pastrami. The settings on record: pastrami stored at 4° C. for three months; amount equivalent to 150 ppm sodium nitrite; plates 30° C. 24 hr.
Protocol: Aerobic colony count of naturally occurring bacteria in smoked beef shoulder pastrami: 5 gr of the pastrami manufactured in a meat factory as described above were homogenized in a sterile grinder with 45 ml of sterile saline, then further diluted with saline. The diluents were plated on BHI agar plates and incubated at 30° C. for 24 hr then colonies were counted and CFU calculated.

Regarding `CC(=O)N[C@@H](CSN=O)C(=O)O` [S-nitroso-N-acetylcysteine], in data set [1], the “color stability (ΔE*) over time” value is “remained stable”. Further, in data set [2], the “bacteria count (aerobic colony count)” value is ~2.0*10^2 cfu/ml and the “bacteria concentration (aerobic colony count)” value (“bacteria concentration” for short) was “lower bacteria concentration”. For the same compound, the “kinetics of N-nitroso-methylaniline formation (UV absorbance at 270 nm versus time)” value in data set [3] is listed as “significantly lesser”. For the same compound, the “aerobic colony count (concentration of bacteria)” value in data set [4] is 7*10^3 CFU/ml.

On to `N[C@@H](CSN=O)C(=O)O` [S-nitroso-cysteine, S-nitrosocysteine], for which, in data set [2], the “bacteria count (aerobic colony count)” value is reported as ~2.0*10^2 cfu/ml and the “bacteria concentration” value is “lower bacteria concentration”. In data set [3], the “kinetics of N-nitroso-methylaniline formation (UV absorbance at 270 nm versus time)” value is “reacts rapidly with N-methylaniline to produce progressively increasing amounts of nitrosamine”.

Turning to `O=NO` [sodium nitrite], the “color stability (ΔE*) over time” value in data set [1] was “decreased over time”. In addition, in data set [2], the “bacteria count (aerobic colony count)” value is 5.8*10^3 cfu/ml and the “bacteria concentration” value is recorded as ~10^8. Further, the “aerobic colony count (concentration of bacteria)” value in data set [4] was 8*10^3 CFU/ml.
